In US20220218641A1 (Concert Pharmaceuticals, Inc., priority 2019, published 2022):
Values belong to the compound of their own block, whether it stands above or below them.

Columns and labels:
[1] = Pharmacokinetic profile of Compound 100 vs non-deuterated D-serine, single 150 mg/kg PO dose (Example 3); format: in vivo, male Sprague-Dawley rats
Source text: (§1) The pharmacokinetic profile of Compound 100 was investigated in male Sprague-Dawley rats compared with that of non-deuterated D-serine. […] Plasma was collected and analyzed for Compound 100 and non-deuterated D-Serine. Additional blood was collected and analyzed for the full clinical chemistry profile.

[2] = Pharmacokinetics of deuterated and non-deuterated D-serine, PO 10 mg/kg (Example 5); format: in vivo, male Sprague Dawley rats
Protocol: Three rats were used for each group. Blood was collected at the following time points: for IV dosing: pre-dose, 0.05, 0.167, 0.5, 1, 2, 4, 6, 8 and 12 hours post-dose; for PO dosing: pre-dose, 0.25, 0.5, 1, 2, 4, 6, 8 and 12 hours post-dose PO. Urine was collected at pre-dose (minimum 12 hours), 0-6, 6-12 and 12-24 hours. Plasma samples were analyzed and quantified for dosed compound LC-MS/MS.

[3] = biological target: T1, human NMDAR subunits GluN1 and GluN2A (Homo sapiens, UniProt Q05586); assay: Automated patch clamp (ScreenPatch) NMDA receptor activation in HEK293 cells; format: cell-based; conditions: 0.003 to 10 μM
T1 construct: expressed in transfected cells; host or cells: HEK293
Protocol: Peak current and steady state current were measured. The activity at the NMDA receptor was indistinguishable for the two compounds.

[4] = Nephrotoxicity comparison, dose escalation 150 mg/kg to 750 mg/kg PO (Example 3, FIGS. 7-10); format: in vivo, rats; conditions: for BUN / Creatinine: PO doses from 150 mg/kg to 750 mg/kg
[5] = Nephrotoxicity of Compound 100 and non-deuterated D-serine at 150 mg/kg PO (Example 3); format: in vivo, male Sprague-Dawley Rats
Source text: as §1

[6] = Nephrotoxicity dose response of non-deuterated D-serine, 30-300 mg/kg PO (Example 4); format: in vivo, male Sprague-Dawley Rats; conditions: 24 hr samples at the 150 and 300 mg/kg doses, compared to control and reference values
Source text: (§2) The pharmacokinetic profile of non-deuterated D-serine was investigated in male Sprague-Dawley rats. […] Plasma was collected and analyzed for the non-deuterated D-serine. Additional blood was collected and analyzed for the full clinical chemistry profile.

[7] = Nephrotoxicity of non-deuterated D-serine at 300 mg/kg PO: clinical chemistry and urine (Example 2); format: in vivo, Male Sprague-Dawley Rats
Protocol: The hippocampus, cortex and plasma were collected and analyzed. Additional blood was collected and were analyzed for the full clinical chemistry profile. Urine was also collected and examined for glucose and total protein. […] The mean plasma, hippocampus, and cortex concentration at 1 hour are 19200 ng/mL, 674 ng/g, and 754 ng/g; respectively. The mean plasma, hippocampus, and cortex concentrations at 8 hours were 11250 ng/mL, 17725 ng/g, and 11875 ng/g, respectively. […] Blood urea nitrogen and creatinine levels were elevated.

[8] = Pharmacokinetics dose response of non-deuterated D-serine, 30-300 mg/kg PO (Example 4); format: in vivo, male Sprague-Dawley rats
Source text: as §2

[9] = dose escalation 150 mg/kg to 750 mg/kg
[10] = serum, D-serine at 24 hr, Compound 100 at 4, 8 and 24 hours

Cmax and AUCinf compared with non-deuterated D-serine [1]: similar
Tmax compared with non-deuterated D-serine [2]: similar
Activity at the NMDA receptor (peak current and steady state current) [3]: indistinguishable
SMILES: [2H][C@@](N)(CO)C(=O)O [Compound 100, (2R)-2-amino-2-deutero-3-hydroxy-propanoic acid]
BUN [4]: minimal changes
Creatinine [4]: minimal changes
Exposure as measured by AUC and Cmax, compared with non-deuterated D-serine [4, 9]: greater
Gross signs of nephrotoxicity [4, 9]: not
Levels of biomarkers of nephrotoxicity [5]: did not increase

AUCinf, multiple of the 30 mg/kg value ([8]; 75 mg/kg PO (2.5× dose)): 2.9×
Cmax, multiple of the 30 mg/kg value ([8]; 75 mg/kg PO (2.5× dose)): 2.2×
AUCinf, multiple of the 30 mg/kg value ([8]; 100 mg/kg PO (3.3× dose)): 4.9×
Cmax, multiple of the 30 mg/kg value ([8]; 100 mg/kg PO (3.3× dose)): 4.0×
AUCinf, multiple of the 30 mg/kg value ([8]; 150 mg/kg PO (5× dose)): 6.9×
Cmax, multiple of the 30 mg/kg value ([8]; 150 mg/kg PO (5× dose)): 7.4×
AUCinf, multiple of the 30 mg/kg value ([8]; 300 mg/kg PO (10× dose)): 18×
Cmax, multiple of the 30 mg/kg value ([8]; 300 mg/kg PO (10× dose)): 10.7×
Tmax ([8]; plasma, 150 mg/kg PO): 18 min
Activity at the NMDA receptor (peak current and steady state current) [3]: indistinguishable
SMILES: N[C@H](CO)C(=O)O [Non-deuterated D-Serine, D-serine]
Creatine level [6]: Elevated
Gamma glutamyl transferase (GGT) level [6]: Elevated
Urea nitrogen level [6]: Elevated
Blood urea nitrogen level [7]: elevated
Creatinine level [7]: elevated
Glucose in urine [7]: observed
BUN [4]: increasingly elevated levels
Creatinine [4]: increasingly elevated levels
Gross signs of nephrotoxicity [4, 9]: observed
Levels of biomarkers of nephrotoxicity [5]: caused an increase
Blood urea nitrogen (BUN) level ([5]; serum, D-serine at 8 hr and 24 hr, Compound 100 at 4, 8 and 24 hours): Elevated
Creatinine level [5, 10]: Elevated
Gamma glutamyl transferase (GGT) level [5, 10]: Elevated
